Measurements as given in patent publication US20030216571A1, “Tricyclic compounds” (priority 1999, published 2003).

test system: Leukotriene D4 induced respiratory constriction; assay: Leukotriene D4 induced respiratory constriction test; format: in vivo; conditions: p.o. 1 hr before i.v. LTD4; anesthetized Hartley male guinea pigs; respiratory inner pressure
Procedure: Leukotriene D4 Induced Respiratory Constriction Test
Respiratory constriction was measured by modifying the method of Konzett and Rossler (Arch. Exp. Pathol. Pharmakol., 195, pp. 71-74 (1940)). Hartley male guinea pigs (400 to 500 g body weight, Nippon SLC Co.) were anesthetized with pentobarbital (50 mg/kg, s.c.), and a cannula was inserted into the trachea to carry out artificial ventilation with an artificial ventilator (manufactured by Harvard Co., Model 683). An inner pressure of the respiratory tract was measured by a differential pressure transducer (Nihon Koden, TP-603T) connected to the respiratory cannula and it is used as an index of respiratory constriction.
LTD4 (0.03, 0.06, 0.13, 0.25, 0.5, 1 and 2 μg/kg, Sigma Co.) was intravenously administered from a cannula inserted into the right jugular vein from a low dose with an interval of 5 minutes to cause a respiratory constriction reaction and an increased amount of a respiratory inner pressure was measured. Test compound was suspended in 0.5% sodium carboxymethyl cellulose aqueous solution, and orally administered 1 hour before administration of LTD4. Animals were fasted for 24 hours before administration of the Test compound.
A2=(Dose of Compound administered)/{(ED50 of group to which Compound was added)/(ED50 of control group)−1}

Row | SMILES | A2 (dose of Test compound required for shifting two-times the LTD4 dose-reaction curve of control group to higher dose side) [µg/kg]
1 | O=C(O)CCSC1c2ccccc2COc2ccc(OCc3ccc4cc(F)c(Cl)cc4n3)cc21 (stereo not drawn) [Compound A, 11-(2-carboxyethyl)thio-2-(7-chloro-6-fluoro-quinolin-2-yl)methoxy-6,11-dihydrodibenz[b,e]oxepine, reference compound] | 16
2 | O=C([O-])CCSC1c2ccccc2COc2ccc(/C=C/c3ccc4cc(F)c(Cl)cc4n3)cc21.[Na+] (stereo not drawn) [Example 2 (b), Sodium 3-{[2-[(E)-2-(7-chloro-6-fluoro-2-quinolinyl)ethenyl]-6,11-dihydrodibenz[b,e]oxepin-11-yl]thio}propionate] | 1.7
3 | O=C([O-])CCSC1c2cc(/C=C/c3ccc4cc(F)c(F)cc4n3)ccc2OCc2c1cccc2C(F)(F)F.[Na+] (stereo not drawn) [Example 14, Sodium 3-{[2-[(E)-2-(6,7-difluoro-2-quinolinyl)ethenyl]-7-trifluoromethyl-6,11-dihydrodibenz[b,e]oxepin-11-yl]thio}propionate] | 4.4

biological target: T1, Leukotriene D4 receptor (Cavia porcellus, UniProt Q2NNR5); assay: Leukotriene D4 receptor binding test; conditions: binding inhibition constant (Ki) vs [3H] LTD4 0.2 nM; lung cell membrane fraction from guinea pigs; 25° C. for 30 minutes; read-out: pKi value (converted)
T1 construct: As a receptor sample, a lung cell membrane fraction from guinea pigs was used; from tissue; host or cells: lung membrane fraction of Hartley male guinea pigs
T1 sequence (Q2NNR5 1-340): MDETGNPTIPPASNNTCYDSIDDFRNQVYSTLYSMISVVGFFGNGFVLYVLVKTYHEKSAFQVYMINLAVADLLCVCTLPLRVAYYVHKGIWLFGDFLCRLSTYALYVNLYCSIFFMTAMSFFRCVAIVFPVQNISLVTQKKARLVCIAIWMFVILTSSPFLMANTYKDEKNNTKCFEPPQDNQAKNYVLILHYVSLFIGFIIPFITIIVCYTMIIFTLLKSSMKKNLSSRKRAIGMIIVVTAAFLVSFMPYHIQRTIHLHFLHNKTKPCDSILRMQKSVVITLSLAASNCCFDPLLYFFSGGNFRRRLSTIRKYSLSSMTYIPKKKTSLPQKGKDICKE
Procedure: Leukotriene D4 Receptor Binding Test
As a receptor sample, a lung cell membrane fraction from guinea pigs was used. Preparation of the membrane fraction was carried out according to the method of Ahn et al. (Eur. J. Pharmacol., 127, 153-155 (1986)). Lungs of Hartley male guinea pigs (400 to 500 g body weight, Nippon SLC Co.) were extracted, and perfused with a physiological saline, and then, adding 10 mM of PIPES, 10 mM of MgCl2 and 10 mM of CaCl2 buffer (pH 7.5) to the lung tissue and the mixture was homogenized. This homogenate was centrifuged at 70,000 xg for 10 minutes to obtain a membrane fraction.
Leukotriene D4 (LTD4) recepter binding test was carried out according to the method of Aharony, et al. (J. Pharmacol. Expl.Ther., 243, 921-926 (1987)). To 0.42 mg of the receptor sample were added 10 mM of PIPES, 10 mM of MgCl2 and 10 mM of CaCl2 buffer (pH 7.5) to make the total amount of 480 μl, and 10 μl of [^3H] LTD4 (NEN Life Science Products Co.) and 10 μl of a Test compound in dimethylsulfoxide were added to the mixture, and the resulting mixture was incubated at 25° C. for 30 minutes. The mixtures thus incubated were filtered through a glass fiber filter (Whatman Co., GF/C) using cell harvester (Brandel Co., M-30R). The filter were washed with 10 mM of Tris. and 100 mM of NaCl buffer (pH 7.5), and 5 ml of a liquid scintillator (NACALAI TESQUE INC., clearsol I), and radioactivity was measured by a liquid scintillation analyzer (Packard Co., 2000CA). When a dissociation constant (Kd) of LTD4 was to be obtained, [^3H] LTD4 with 0.03 to 0.5 nM was used, and 1 μM of non-radioactive LTD4 was added. When a binding inhibition constant (Ki) of the Test compound is to be meaured, [^3H] LTD4 with 0.2 nM was used. Kd and Ki are calculated according to the method of Bennett et al. (Neurotransmitter Receptor Binding, 2nd ed., edited by H. I. Yamamura et al., pp. 61-89, Raven Press (1985)).

Row | SMILES | Ki [nM]
4 | O=C(O)CCSC1c2ccccc2COc2ccc(OCc3ccc4cc(F)c(Cl)cc4n3)cc21 (stereo not drawn) [Compound A, 11-(2-carboxyethyl)thio-2-(7-chloro-6-fluoro-quinolin-2-yl)methoxy-6,11-dihydrodibenz[b,e]oxepine, reference compound] | 0.316
5 | O=C([O-])CCSC1c2ccccc2COc2ccc(/C=C/c3ccc4cc(F)c(Cl)cc4n3)cc21.[Na+] (stereo not drawn) [Example 2 (b), Sodium 3-{[2-[(E)-2-(7-chloro-6-fluoro-2-quinolinyl)ethenyl]-6,11-dihydrodibenz[b,e]oxepin-11-yl]thio}propionate] | 0.316
6 | O=C([O-])CCSC1c2cc(/C=C/c3ccc4cc(F)c(F)cc4n3)ccc2OCc2c1cccc2C(F)(F)F.[Na+] (stereo not drawn) [Example 14, Sodium 3-{[2-[(E)-2-(6,7-difluoro-2-quinolinyl)ethenyl]-7-trifluoromethyl-6,11-dihydrodibenz[b,e]oxepin-11-yl]thio}propionate] | 0.631
7 | C[C@@H](CSC1c2ccccc2COc2ccc(/C=C/c3ccc4c(n3)CCCC4)cc21)C(=O)[O-].[Na+] (stereo partly drawn) [Example 26, Sodium 3-{[2-[(E)-2-(5,6,7,8-tetrahydro-2-quinolinyl)ethenyl]-6,11-dihydrodibenz[b,e]oxepin-11-yl]thio}-2-(R)-methylpropionate] | 0.316
8 | CCC(CSC1c2ccccc2COc2ccc(/C=C/c3ccc4cc(F)c(F)cc4n3)cc21)C(=O)[O-].[Na+] (stereo not drawn) [Example 45, Sodium 3-{[2-[(E)-2-(6,7-difluoro-2-quinolinyl)ethenyl]-6,11-dihydrodibenz[b,e]oxepin-11-yl]thio}-2-ethylpropionate] | 0.158

test system: not given; assay: not given; conditions: not given

Row | melting point | SMILES
9 | 246 to 254 °C | O=S(=O)([O-])CCSC1c2ccccc2COc2ccc(/C=C/c3ccc4cc(F)c(F)cc4n3)cc21.[Na+] (stereo not drawn)
10 | 238 to 241 °C | O=C(O)CCSC1c2cc(/C=C/c3ccc4cc(F)c(Cl)cc4n3)ccc2OCc2c(F)cccc21 (stereo not drawn)
11 | 237 to 239 °C | O=C(O)CC1(CSC2c3cc(/C=C/c4ccc5cc(F)c(Cl)cc5n4)ccc3OCc3c(F)cccc32)CC1 (stereo not drawn)
12 | 160 to 163 °C | O=C([O-])CCSC1c2ccccc2COc2ccc(/C=C/c3ccc4ccc(F)cc4n3)cc21.[Na+] (stereo not drawn)
13 | 149 to 152 °C | O=C([O-])CC1(CSC2c3ccccc3COc3ccc(/C=C/c4ccc5ccc(F)cc5n4)cc32)CC1.[Na+] (stereo not drawn)
14 | 195 to 198 °C | O=C(O)CCSC1c2ccccc2COc2ccc(/C=C/c3ccc4ccc(Cl)cc4n3)cc21 (stereo not drawn)
15 | 204 to 206 °C | O=C(O)CC1(CSC2c3ccccc3COc3ccc(/C=C/c4ccc5ccc(Cl)cc5n4)cc32)CC1 (stereo not drawn)
16 | 150 to 153 °C | O=C(O)CCSC1c2ccccc2COc2ccc(/C=C/c3ccc4c(n3)CCCC4)cc21 (stereo not drawn)
17 | 142 to 145 °C | O=C([O-])CC1(CSC2c3ccccc3COc3ccc(/C=C/c4ccc5c(n4)CCCC5)cc32)CC1.[Na+] (stereo not drawn)
18 | 140 to 142 °C | O=C([O-])CCSC1c2ccccc2COc2ccc(/C=C/c3cc(Cl)c4ccccc4n3)cc21.[Na+] (stereo not drawn)
19 | 150 to 152 °C | O=C([O-])CCSC1c2ccccc2COc2ccc(/C=C/c3ccc4c(F)cccc4n3)cc21.[Na+] (stereo not drawn)
20 | 142 to 144 °C | O=C([O-])CC1(CSC2c3ccccc3COc3ccc(/C=C/c4ccc5c(F)cccc5n4)cc32)CC1.[Na+] (stereo not drawn)
21 | 149 to 152 °C | O=C([O-])CC1(CSC2c3ccccc3COc3ccc(/C=C/c4ccc5c(F)cc(F)cc5n4)cc32)CC1.[Na+] (stereo not drawn)
22 | > 300 °C | O=C([O-])CCSC1c2ccccc2COc2ccc(/C=C/c3nc4cc(F)ccc4s3)cc21.[Na+] (stereo not drawn)
23 | 155 to 157 °C | O=C([O-])CC1(CSC2c3ccccc3COc3ccc(/C=C/c4nc5cc(F)ccc5s4)cc32)CC1.[Na+] (stereo not drawn)
24 | 247 to 250 °C | O=C([O-])CCSC1c2ccccc2COc2ccc(/C=C/c3nc4cc(F)ccc4o3)cc21.[Na+] (stereo not drawn)
25 | 137 to 139 °C | Cc1ccc(/C=C/c2ccc3c(c2)C(SCCC(=O)[O-])c2ccccc2CO3)nc1C(C)C.[Na+] (stereo not drawn)
26 | 144 to 148 °C | O=C([O-])CCSC1c2ccccc2CSc2ccc(/C=C/c3ccc4cc(F)c(F)cc4n3)cc21.[Na+] (stereo not drawn)
27 | 182 to 186 °C | O=C(CSC1c2ccccc2COc2ccc(/C=C/c3ccc4cc(F)c(F)cc4n3)cc21)NS(=O)(=O)C(F)(F)F.[Na] (stereo not drawn)
28 | 187 to 192 °C | CS(=O)(=O)NC(=O)CCSC1c2ccccc2COc2ccc(/C=C/c3ccc4cc(F)c(F)cc4n3)cc21.[Na] (stereo not drawn)
29 | 121 to 123 °C | COC(=O)c1ccc2c(c1)COc1ccc(/C=C/c3ccc4c(n3)CCCC4)cc1C2SCCC(=O)O (stereo not drawn)
30 | 211 to 220 °C | C[C@H](CSC1c2ccccc2CCc2ccc(/C=C/c3ccc4cc(F)c(F)cc4n3)cc21)C(=O)[O-].[Na+] (stereo partly drawn)
31 | 243 to 250 °C | O=C([O-])CCSC1c2ccc(F)cc2COc2ccc(/C=C/c3ccc4cc(F)c(F)cc4n3)cc21.[Na+] (stereo not drawn)
32 | 183 to 186 °C | O=C([O-])c1ccccc1SC1c2ccccc2COc2ccc(/C=C/c3ccc4cc(F)c(F)cc4n3)cc21.[Na+] (stereo not drawn) [Example 8 (b), Sodium 2-{[2-[(E)-2-(6,7-difluoro-2-quinolinyl)ethenyl]-6,11-dihydrodibenz[b,e]oxepin-11-yl]thio}benzoate]
33 | 184 to 188 °C | O=C([O-])c1cccc(SC2c3ccccc3COc3ccc(/C=C/c4ccc5cc(F)c(F)cc5n4)cc32)c1.[Na+] (stereo not drawn) [Example 9 (b), Sodium 3-{[2-[(E)-2-(6,7-difluoro-2-quinolinyl)ethenyl]-6,11-dihydrodibenz[b,e]oxepin-11-yl]thio}benzoate]
34 | 285 to 287 °C (dec.) | O=C([O-])c1ccc(SC2c3ccccc3COc3ccc(/C=C/c4ccc5cc(F)c(F)cc5n4)cc32)cc1.[Na+] (stereo not drawn) [Example 10 (b), Sodium 4-{[2-[(E)-2-(6,7-difluoro-2-quinolinyl)ethenyl]-6,11-dihydrodibenz[b,e]oxepin-11-yl]thio}benzoate]
35 | 168 to 173 °C | C[C@@H](CSC1c2ccccc2COc2ccc(/C=C/c3ccc4c(n3)CCCC4)cc21)C(=O)[O-].[Na+] (stereo partly drawn) [Example 26, Sodium 3-{[2-[(E)-2-(5,6,7,8-tetrahydro-2-quinolinyl)ethenyl]-6,11-dihydrodibenz[b,e]oxepin-11-yl]thio}-2-(R)-methylpropionate]
36 | 168 to 175 °C | CC(C)(CC(=O)[O-])SC1c2ccccc2COc2ccc(/C=C/c3ccc4c(n3)CCCC4)cc21.[Na+] (stereo not drawn) [Example 27, Sodium 3-{[2-[(E)-2-(5,6,7,8-tetrahydro-2-quinolinyl)ethenyl]-6,11-dihydrodibenz[b,e]oxepin-11-yl]thio}-3-methylbutanoate]
37 | 209 to 218 °C | CCC(CSC1c2ccccc2COc2ccc(/C=C/c3ccc4cc(F)c(F)cc4n3)cc21)C(=O)[O-].[Na+] (stereo not drawn) [Example 45, Sodium 3-{[2-[(E)-2-(6,7-difluoro-2-quinolinyl)ethenyl]-6,11-dihydrodibenz[b,e]oxepin-11-yl]thio}-2-ethylpropionate]

Row | SMILES | melting point
38 | N#Cc1cccc2c1COc1ccc(/C=C/c3ccc4cc(F)c(F)cc4n3)cc1C2SCCC(=O)O (stereo not drawn) | 261 to 264 °C (dec.)
39 | O=C(O)CCSC1c2ccccc2COc2ccc(/C=C/c3ccc4cc(F)c(F)cc4n3)cc21 (stereo not drawn) | 213 to 216 °C
